Among the data in paper PMC6956362 (ACS Medicinal Chemistry Letters, 2019) are stability, unspecific binding and cellular uptake values, retold here.

Data set [1] is described as follows: Stability in PBS, RP-HPLC analysis. Conditions: pH 7.4, 22 °C, up to 48 h. It is filed as physicochemical.
The subject of data set [2] is CHO-hNTS1R cells. Kind of data set: Confocal microscopy at live CHO-hNTS1R cells. It is filed as cell-based, Chinese hamster. Conditions: for unspecific binding: 22–25 °C, in the presence of 1 (100-fold excess).

For the molecule `CC[C@H](C)[C@H](NC(=O)[C@H](Cc1ccc(O)cc1)NC(=O)[C@@H]1CCCN1C(=O)[C@H](CCCNC(=N)N)NC(=O)[C@@H](N)CCCNC(=N)NC(=O)NCCCCNC(=O)CCCCCN1\C(=C/C=C/C=C/C2=[N+](CCCCS(=O)(=O)[O-])c3ccccc3C2(C)C)C(C)(C)c2cc(S(=O)(=O)O)ccc21)C(=O)N[C@@H](CC(C)C)C(=O)O` [compound 6, N-(N-[4-{N-(6-[3,3-Dimethyl-6-sulfonato-2-{5-(3,3-dimethyl-1-[4-sulfonatobutyl]-3H-indol-1-ium-2-yl)penta-2,4-dien-1-ylidene}indolin-1-yl]hexanoyl)amino}butyl]aminocarbonyl)-Arg-Arg-Pro-Tyr-Ile-Leu bis(hydrotrifluoroacetate)], the stability result in data set [1] is “excellent stabilities”. Besides, the unspecific binding result in data set [2] is reported as “very low”.

Consider `CC[C@H](C)[C@H](NC(=O)[C@H](Cc1ccc(O)cc1)NC(=O)[C@@H]1CCCN1C(=O)[C@H](CCCNC(=N)N)NC(=O)[C@@H](N)CCCNC(=N)NC(=O)NCCOCCOCCNC(=O)CCCCCN1\C(=C/C=C/C=C/C2=[N+](CCCCS(=O)(=O)[O-])c3ccccc3C2(C)C)C(C)(C)c2ccccc21)C(=O)N[C@@H](CC(C)C)C(=O)O` [compound 11], for which the stability result in data set [1] was “excellent stabilities”. The unspecific binding entry in data set [2] is “very low”.

For the molecule `CC[C@H](C)[C@H](NC(=O)[C@H](Cc1ccc(O)cc1)NC(=O)[C@@H]1CCCN1C(=O)[C@H](CCCNC(=N)N)NC(=O)[C@@H](N)CCCNC(=N)NC(=O)NCCOCCOCC[n+]1c(C)cc(/C=C/C=C/c2ccc(N(C)C)cc2)cc1C)C(=O)N[C@@H](CC(C)C)C(=O)O` [compound 14], in data set [1], the stability entry is recorded as “minor decomposition after incubation times >24 h”. Besides, the unspecific binding entry in data set [2] is reported as “very low”.

`CC[C@H](C)[C@H](NC(=O)[C@H](Cc1ccc(O)cc1)NC(=O)[C@@H]1CCCN1C(=O)[C@H](CCCNC(=N)NC(=O)NCCOCCOCCNC(=O)CCCCCN1/C(=C/C=C/C=C/C2=[N+](CCCCS(=O)(=O)[O-])c3ccccc3C2(C)C)C(C)(C)c2cc(S(=O)(=O)O)ccc21)NC(=O)[C@@H](N)CCCNC(=N)N)C(=O)N[C@@H](CC(C)C)C(=O)O` [compound 17]: the stability result in data set [1] is listed as “excellent stabilities”.

Regarding `CCNC(=O)CCCCCN1/C(=C/C=C/C=C/C2=[N+](CCCCS(=O)(=O)[O-])c3ccccc3C2(C)C)C(C)(C)c2cc(S(=O)(=O)O)ccc21` [compound 20], the cellular uptake entry in data set [2] (200 nM, 22-25 °C, CHO-hNTS1R cells) is reported as “no uptake”.
